Source: US5512558A, “Nor-bile acid derivatives, processes for their preparation and the use of these compounds as medicaments” (Hoechst Aktiengesellschaft, priority 1993, dated 1996)

Target: T1, Na+-dependent bile acid transportation system (brush border membrane vesicles of the ileum) (Oryctolagus cuniculus, UniProt Q28727)
T1 construct: Brush border membrane vesicles were prepared from the intestinal cells of the small intestine; from tissue; host or cells: brush border membrane vesicles from the terminal 7/10 of the small intestine (ileum) of male New Zealand rabbits
T1 sequence (Q28727 1-347): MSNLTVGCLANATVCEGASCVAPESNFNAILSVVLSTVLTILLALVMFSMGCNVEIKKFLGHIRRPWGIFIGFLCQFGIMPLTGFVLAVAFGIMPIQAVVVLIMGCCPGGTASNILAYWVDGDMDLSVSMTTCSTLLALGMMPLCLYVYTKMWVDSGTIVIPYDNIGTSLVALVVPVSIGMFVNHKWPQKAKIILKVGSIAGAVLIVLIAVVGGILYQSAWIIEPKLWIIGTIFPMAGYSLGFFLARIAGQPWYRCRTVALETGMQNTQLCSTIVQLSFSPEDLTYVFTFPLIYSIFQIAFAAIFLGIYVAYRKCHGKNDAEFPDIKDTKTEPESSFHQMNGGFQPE
Test: Inhibition of [3H]-taurocholate uptake in brush border membrane vesicles of the ileum of rabbits
Type: biochemical
Settings: Na+-dependent part of [3H]-taurocholate uptake (difference Na-T-B minus K-T-B), rabbit ileal brush border membrane vesicles
Method: The compounds according to the invention were tested biologically by determination of the inhibition of ^3 H!-taurocholate uptake in the brush border membrane vesicle of the ileum of rabbits. The inhibition test was carried out as follows:
1. Preparation of brush border membrane vesicles from the ileum of rabbits
Brush border membrane vesicles were prepared from the intestinal cells of the small intestine by the so-called Mg^2+ precipitation method. Male New Zealand rabbits (2 to 2.5 kg body weight) were sacrificed by intravenous injection of 0.5 ml of an aqueous solution of 2.5 mg of tetracaine HCl, 100 T 61^R and 25 mg of mebezonium iodide. The small intestine was removed and rinsed with ice-cold physiological saline solution. The terminal 7/10 of the small intestine (measured in the oral-rectal direction, i.e. the terminal ileum, which contains the active Na^+ -dependent bile acid transportation system) was used for preparation of the brush border membrane vesicles. The intestines were frozen in plastic bags under nitrogen at -80° C. For preparation of the membrane vesicles, the frozen intestines were thawed at 30° C. in a water-bath. The mucosa was scraped off and suspended in 60 ml of ice-cold 12 mMTris/HCl buffer (pH 7.1)/300 mM mannitol, 5 mM EGTA/10 mg/l of phenylmethyl-sulfonyl fluoride/1 mg/l of trypsin inhibitor from soybean (32 U/mg)/0.5 mg/l of trypsin inhibitor from bovine lung (193 U/mg)/5 mg/l bacitracin. After dilution to 300 ml with ice-cold distilled water, the mixture was homogenized with an Ultraturrax (18-rod, IKA Werk Stuafen, FRG) for 3 minutes at 75% of the maximum power, while cooling with ice. After addition of 3 ml of 1M MgCl2 solution (final concentration 10 mM), the mixture was left to stand for exactly 1 minute at 0° C. By addition of Mg^2+, the cell membranes aggregate and precipitate, with the exception of the brush border membranes. After centrifugation at 3000×g (5000 rpm, SS-34 rotor) for 15 minutes, the precipitate is discarded and the supernatant, which contains the brush border membranes, is centrifuged at […] (15,000 rpm, SS-34 rotor) for 30 minutes. The supernatant was discarded and the precipitate was rehomogenized in 60 ml of 12 mMTris/HCl buffer (pH 7.1)/60 mM mannitol, 5 mM EGTA using a Potter Elvejhem homogenizer (Braun, Melsungen, 900 rpm, 10 strokes). After addition of 0.1 ml of 1M MgCl2 solution and an incubation time of 15 minutes at 0° C., the mixture was centrifuged again at 3000×g for 15 minutes. The supernatant was then centrifuged again at 46,000×g (15,000 rpm, SS-34 rotor) for 30 minutes. The precipitate was taken up in 30 ml of 10 mM Tris/Hepes buffer (pH 7.4)/300 mM mannitol and resuspended homogeneously by 20 strokes in a Potter Elvejhem homogenizer at 1000 rpm. After centrifugation at 48,000×g (20,000 rpm, SS-34 rotor) for 30 minutes, the precipitate was taken up in 0.5 to 2 ml of Tris/Hepes buffer (pH 7.4)/280 mM mannitol (final concentration 20 mg/ml) and resuspended with the aid of a tuberculin syringe with a 27 gauge needle. The vesicles were either used for transportation studies immediately after preparation, or stored at -196° C. in 4 mg portions in liquid nitrogen.
2. Inhibition of the Na^+ -dependent ^3 H!-taurocholate uptake in brush border membrane vesicles of the ileum
The uptake of substrates in the brush border membrane vesicles described above was determined by means of the so-called membrane filtration technique. 10 μl of the vesicle suspension (100 μg of protein) were pipetted as drops onto the wall of a polystyrene incubation tube (11×70 mm) which contained the incubation medium with the corresponding ligands (90 μl). […]

Row | SMILES | quotient of the IC50Na values of the reference substance taurochenodeoxycholate (TCDC) and the test substance
1 | C[C@H](CCC(=O)O)[C@H]1CC[C@H]2[C@@H]3[C@H](O)C[C@@H]4C[C@@H](NC(=O)C[C@@H](C)[C@H]5CC[C@H]6[C@@H]7[C@H](O)C[C@@H]8C[C@H](O)CC[C@]8(C)[C@H]7C[C@H](O)[C@]56C)CC[C@]4(C)[C@H]3C[C@H](O)[C@]12C [Example 32] | 0.65
2 | C[C@H](CCC(=O)O)[C@H]1CC[C@H]2[C@@H]3[C@H](O)C[C@@H]4C[C@@H](NC(=O)C[C@@H](C)[C@H]5CC[C@H]6[C@@H]7[C@H](O)C[C@@H]8C[C@H](O)CC[C@]8(C)[C@H]7C[C@H](O)[C@]56C)CC[C@]4(C)[C@H]3CC[C@]12C [Example 36] | 1.14
3 | C[C@H](CCC(=O)O)[C@H]1CC[C@H]2[C@@H]3[C@H](O)C[C@@H]4C[C@@H](OCCOCCNC(=O)[C@@H](C)[C@H]5CC[C@H]6[C@@H]7[C@H](O)C[C@@H]8C[C@H](O)CC[C@]8(C)[C@H]7C[C@H](O)[C@]56C)CC[C@]4(C)[C@H]3C[C@H](O)[C@]12C [Example 41] | 0.58
4 | CC(C(=O)N[C@H]1CC[C@@]2(C)[C@@H](C1)C[C@@H](O)[C@@H]1[C@@H]2CC[C@]2(C)[C@@H]([C@H](C)CCC(=O)O)CC[C@@H]12)[C@H]1CC[C@H]2[C@@H]3[C@H](O)C[C@@H]4C[C@H](O)CC[C@]4(C)[C@H]3C[C@H](O)[C@]12C (stereo partly shown) [Example 43] | 0.78
5 | C[C@H](CCC(=O)NCC(=O)O)[C@H]1CC[C@H]2[C@@H]3[C@H](O)C[C@@H]4C[C@@H](OCCOCCNC(=O)C[C@@H](C)[C@H]5CC[C@H]6[C@@H]7[C@H](O)C[C@@H]8C[C@H](O)CC[C@]8(C)[C@H]7C[C@H](O)[C@]56C)CC[C@]4(C)[C@H]3C[C@H](O)[C@]12C [Example 57] | 0.34
6 | C[C@H](CCC(=O)N[C@H]1CC[C@@]2(C)[C@@H](C1)C[C@@H](O)[C@@H]1[C@@H]2C[C@H](O)[C@]2(C)[C@@H]([C@H](C)CC(=O)O)CC[C@@H]12)[C@H]1CC[C@H]2[C@@H]3[C@H](O)C[C@@H]4C[C@H](O)CC[C@]4(C)[C@H]3CC[C@]12C [Example 65] | 0.64
7 | C[C@H](CC(=O)O)[C@H]1CC[C@H]2[C@@H]3[C@H](O)C[C@@H]4C[C@@H](NC(=O)[C@@H](C)[C@H]5CC[C@H]6[C@@H]7[C@H](O)C[C@@H]8C[C@H](O)CC[C@]8(C)[C@H]7C[C@H](O)[C@]56C)CC[C@]4(C)[C@H]3C[C@H](O)[C@]12C [Example 69] | 0.86
